The test system of series [1] is Mycobacterium tuberculosis. The experiment in a line: Antimycobacterial activity against Mycobacterium tuberculosis H37Rv after 3 to 7 days by rapid direct susceptibility test. Format: functional.
The test system of series [2] is Mycobacterium tuberculosis. The experiment in a line: Potency index, ratio of rifampicin MIC to test compound MIC for Mycobacterium tuberculosis H37Rv. The class given is functional.
The test system of a further series is SW480. The experiment in a line: Anticancer activity against human SW480 cells after 48 hrs by MTT assay. The class given is functional, cell-based. To be noted: SW480, 48 h. In general terms: Formazan colour is commonly taken as a measure of viable cells.
Another series relates to HepG2. The experiment in a line: Anticancer activity against human HepG2 cells after 48 hrs by MTT assay. Format: functional, cell-based. To be noted: HepG2, 48 h.
Another series relates to HeLa. Description: Anticancer activity against human HeLa cells after 48 hrs by MTT assay. Format: functional, cell-based.
For the next series, the system named is A549. The experiment in a line: Anticancer activity against human A549 cells after 48 hrs by MTT assay. The class given is functional, cell-based. To be noted: A549, 48 h.
For series [3], the system named is Escherichia coli. Description: Antibacterial activity against Escherichia coli NCTC 10418 infected in po dosed CF mouse measured after 1 week. The class given is functional. To be noted: NCTC 10418, po, 168 h.
Series [4] deals with Escherichia coli. The experiment in a line: Potency index, ratio of norfloxacin ED50 to test compound ED50 for antibacterial activity against Escherichia coli NCTC 10418 infected in po dosed CF mouse. Format: functional.
The subject of the next series is Vibrio cholerae. Description: Antibacterial activity against Vibrio cholerae by agar dilution method. The class given is functional.
The next series concerns Citrobacter freundii. The experiment in a line: Antibacterial activity against Citrobacter freundii by agar dilution method. Format: functional.
The next series concerns Klebsiella pneumoniae. Description: Antibacterial activity against Klebsiella pneumoniae by agar dilution method. The class given is functional. (In agar dilution the substance is mixed into plates at graded concentrations.)
The subject of another series is Pseudomonas aeruginosa. Description: Antibacterial activity against Pseudomonas aeruginosa by agar dilution method. Format: functional.
Series [5] concerns Escherichia coli. The experiment in a line: Antibacterial activity against Escherichia coli by agar dilution method. The class given is functional.
For the next series, the system named is Salmonella typhi. Description: Antibacterial activity against Salmonella typhi by agar dilution method. The class given is functional, Salmonella enterica subsp. enterica serovar Typhi. To be noted: Salmonella enterica.
The test system of another series is Shigella flexneri. Description: Antibacterial activity against Shigella flexneri by agar dilution method. Format: functional.
Series [6] has as its system Staphylococcus epidermidis. Description: Antibacterial activity against Staphylococcus epidermidis by agar dilution method. The class given is functional.
A further series relates to Staphylococcus aureus. The experiment in a line: Antibacterial activity against Staphylococcus aureus by agar dilution method. Format: functional.
In series [7] the test system is Mycobacterium tuberculosis. The experiment in a line: Antitubercular activity against Mycobacterium tuberculosis H37Rv by microplate alamar blue assay. Format: functional. On the technique in general: The colour change of resazurin is a common sign of viable cells or microbes.
A short description of series [8]: Toxicity in po dosed CF mouse measured after 1 week. To be noted: in vivo. Format: organism-based.

Converted amounts (≈) assume the structure as drawn. Where only a bound is given, the exact number is not on record here.

One may read the MIC as the lowest concentration found to suppress growth. A higher MIC goes with a less susceptible organism. As to `CO/N=C1/C(=O)N(CCn2cc(CN3CCC[C@H]4CN(c5c(F)cc6c(=O)c(C(=O)O)cn(C7CC7)c6c5OC)C[C@H]43)nn2)c2ccc(Br)cc21`, the MIC in series [1] came to 0.1 µg/mL (≈ 0.131 µM). Moreover, the Ratio in series [2] is 4.
A word on the IC50: it is the concentration needed to halve the response being measured. Read a low IC50 as higher potency. Turning to `CC1CN(c2c(F)c(N)c3c(=O)c(C(=O)O)cn(C4CC4)c3c2F)CC(C)N1CN1C(=O)C(=O)c2ccccc21` (configuration not stated), the IC50 in the series with SW480, in the series with HepG2, with HeLa and with A549 was 18.3 to 50 µg/mL (≈ 33.2 to 90.7 µM) throughout.
One may read the ED50 as the dose that gives a 50% effect, or the effect in half of the subjects. For the molecule `CCn1cc(C(=O)O)c(=O)c2cc(F)c(N3CCN(CN4C(=O)/C(=N\c5ncc(Cc6cc(OC)c(OC)c(OC)c6)c(N)n5)c5cc(Br)ccc54)CC3)cc21`, in the series with Escherichia coli [3], the 50% effect level (ED50) was put at a dose of 1.62 mg/kg. Moreover, in the series on Escherichia coli [4], the Ratio is 3.7.
`O=C1C(=O)N(CN2CCN(c3cc4c(cc3F)c(=O)c(C(=O)O)cn4C3CC3)CC2)c2ccccc21`: the minimal inhibitory concentration (MIC) against Vibrio cholerae, with Citrobacter freundii, in the series with Klebsiella pneumoniae, in the series on Pseudomonas aeruginosa, in the series with Escherichia coli [5] and with Salmonella typhi was 0.1 to 0.5 µg/mL (≈ 0.204 to 1.02 µM) throughout. The MIC (in the series on Shigella flexneri; in series [6]; against Staphylococcus aureus) was 0.1 to 0.5 µg/mL (≈ 0.204 to 1.02 µM) each time.
Turning to `CCn1cc(C(=O)O)c(=O)c2cc(F)c(N3CCN(CN4C(=O)/C(=N\c5ncc(Cc6cc(OC)c(OC)c(OC)c6)c(N)n5)c5cc(F)ccc54)C(C)C3)c(F)c21` (configuration not stated), the MIC in series [7] was 0.78 to 3.13 µg/mL (≈ 0.974 to 3.91 µM).
Regarding `CCn1cc(C(=O)O)c(=O)c2cc(F)c(N3CCN(CN4C(=O)C(=O)c5ccccc54)C(C)C3)c(F)c21` (configuration not stated), the minimal inhibitory concentration (MIC) against Vibrio cholerae, with Citrobacter freundii, in the series with Klebsiella pneumoniae, in the series on Pseudomonas aeruginosa, in the series on Escherichia coli [5] and in the series on Salmonella typhi was 0.25 to 2.5 µg/mL (≈ 0.49 to 4.9 µM) each time. In addition, the minimum inhibitory concentration (MIC) (against Shigella flexneri; in series [6]; with Staphylococcus aureus) was 0.25 to 2.5 µg/mL (≈ 0.49 to 4.9 µM) in each case.
The term LD50 denotes the dose at which mortality reaches 50%. Low readings indicate greater toxicity, high ones lower toxicity. The molecule `CCn1cc(C(=O)O)c(=O)c2cc(F)c(N3CCN(CN4C(=O)/C(=N\c5ccc(S(=O)(=O)Nc6ncccn6)cc5)c5ccccc54)CC3)cc21` displayed an ED50 with Escherichia coli [3] of 1.25 mg/kg. Further, the Ratio in the series on Escherichia coli [4] is 4.8. The same molecule yielded an LD50 at 168 h in [8] of more than 4000 mg/kg.
`CCc1cc(C(N)=S)ccn1` [ETHIONAMIDE] registered an MIC in [7] of 2.5 µg/mL (≈ 15 µM).
Take `COc1cc(Cc2cnc(/N=C3\C(=O)N(CN4C(C)CN(c5c(F)c(N)c6c(=O)c(C(=O)O)cn(C7CC7)c6c5F)CC4C)c4ccccc43)nc2N)cc(OC)c1OC` (configuration not stated): the 50% inhibitory concentration (IC50) in the series with SW480, with HepG2, in the series with HeLa and in the series with A549 was 18.3 to 50 µg/mL (≈ 22.2 to 60.7 µM) each time.
With `COc1cc(Cc2cnc(/N=C3\C(=O)N(CN4CCN(c5cc6c(cc5F)c(=O)c(C(=O)O)cn6C5CC5)CC4)c4ccc(Cl)cc43)nc2N)cc(OC)c1OC`, the minimal inhibitory concentration (MIC) in [7] lay in the range of 0.78 to 3.13 µg/mL (≈ 0.978 to 3.93 µM).
As for `Cc1cc(C)nc(NS(=O)(=O)c2ccc(/N=C3\C(=O)N(CN4C(C)CN(c5c(F)c(N)c6c(=O)c(C(=O)O)cn(C7CC7)c6c5F)CC4C)c4ccccc43)cc2)n1` (configuration not stated), the IC50 in the series with SW480, in the series on HepG2, with HeLa and with A549 was 18.3 to 50 µg/mL (≈ 22.6 to 61.6 µM) each time.
In the case of `CC1CN(c2c(F)c(N)c3c(=O)c(C(=O)O)cn(C4CC4)c3c2F)CC(C)N1CN1C(=O)/C(=N\c2ccc(S(=O)(=O)Nc3ncccn3)cc2)c2ccccc21` (configuration not stated), the IC50 in the series on SW480, in the series on HepG2, in the series with HeLa and in the series on A549 was 18.3 to 50 µg/mL (≈ 23.4 to 63.8 µM) in each case.
Take `NNC(=O)c1ccncc1` [ISONIAZID]: the minimum inhibitory concentration (MIC) in series [7] was 0.05 µg/mL (≈ 0.365 µM); in series [1], more than 128 µg/mL.
For `COc1ncnc(NS(=O)(=O)c2ccc(/N=C3\C(=O)N(CN4C(C)CN(c5c(F)c(N)c6c(=O)c(C(=O)O)cn(C7CC7)c6c5F)CC4C)c4ccccc43)cc2)c1OC` (configuration not stated), the concentration for half-maximal inhibition (IC50) in the series on SW480, in the series with HepG2, in the series with HeLa and in the series with A549 was 18.3 to 33.6 µg/mL (≈ 21.7 to 39.8 µM) each time.
`CCn1cc(C(=O)O)c(=O)c2cc(F)c(N3CCN(CN4C(=O)/C(=N\c5ncc(Cc6cc(OC)c(OC)c(OC)c6)c(N)n5)c5cc(F)ccc54)CC3)cc21` yielded an MIC in series [7] of 0.78 to 3.13 µg/mL (≈ 1.01 to 4.07 µM).
As for `Cc1ccc2c(c1)C(=O)C(=O)N2CN1CCN(c2cc3c(cc2F)c(=O)c(C(=O)O)cn3C2CC2)CC1`, the MIC in the series on Vibrio cholerae, in the series with Citrobacter freundii, in the series with Klebsiella pneumoniae, with Pseudomonas aeruginosa, in the series on Escherichia coli [5] and against Salmonella typhi was 0.1 to 0.5 µg/mL (≈ 0.198 to 0.991 µM) in each case. Also, the MIC (in the series with Shigella flexneri; in series [6]; with Staphylococcus aureus) was 0.1 to 0.5 µg/mL (≈ 0.198 to 0.991 µM) each time.
For the molecule `CO[C@H]1/C=C/O[C@@]2(C)Oc3c(C)c(O)c4c(O)c(c(/C=N/N5CCN(C)CC5)c(O)c4c3C2=O)NC(=O)/C(C)=C\C=C\[C@H](C)[C@H](O)[C@@H](C)[C@@H](O)[C@@H](C)[C@H](OC(C)=O)[C@@H]1C` [RIFAMPIN], the minimal inhibitory concentration (MIC) is 0.125 µg/mL (≈ 0.152 µM) in series [7] and 0.25 to 0.39 µg/mL (≈ 0.304 to 0.474 µM) in series [1].

For the origin of these results see ChEMBL document CHEMBL4382234, “Fluoroquinolone-isatin hybrids and their biological activities” (Eur J Med Chem, 2019).
